Measurements: US20250302815A1, “PROTEIN TYROSINE PHOSPHATASE TARGETING LIGANDS” (CALICO LIFE SCIENCES LLC, priority 2021, published 2025)

Legend:
[1] = molecular target: T1, PTPN2 (HiBIT-PTPN2 in 293T.109 cells) (Homo sapiens, UniProt P17706); test: HiBiT Degradation 293T.109 PTPN2 (Nano-Glo HiBiT Lytic Assay); assay type: cell-based; details: 24.0 hours
T1 construct: expressed in transfected cells; host or cells: 293T.109 (293T WT from ATCC)
T1 sequence (P17706 1-415): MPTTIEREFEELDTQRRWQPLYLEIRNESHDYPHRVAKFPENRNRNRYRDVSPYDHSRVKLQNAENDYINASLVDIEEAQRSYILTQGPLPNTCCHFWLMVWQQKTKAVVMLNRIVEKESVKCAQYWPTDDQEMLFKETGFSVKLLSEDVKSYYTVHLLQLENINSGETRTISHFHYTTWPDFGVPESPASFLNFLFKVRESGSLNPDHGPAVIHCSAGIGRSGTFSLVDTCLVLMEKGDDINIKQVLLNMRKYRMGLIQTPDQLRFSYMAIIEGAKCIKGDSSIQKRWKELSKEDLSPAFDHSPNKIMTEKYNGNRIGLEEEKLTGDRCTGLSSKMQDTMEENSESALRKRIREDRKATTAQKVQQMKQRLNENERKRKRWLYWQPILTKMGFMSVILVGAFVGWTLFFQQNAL
Method in brief: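 293T.109 cells with ectopic N-terminal HiBiT-tagged PTPN2 (5000/well) exposed to compounds for 24 h at 37 °C, 5% CO2; 11-point half-log titration from 10 μM top, duplicates. Remaining HiBiT-PTPN2 read as luminescence with Nano-Glo HiBiT lytic reagent, normalised to untreated cells (0%) and reagent-free wells.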

PTPN2 (B16F10.4 cells) = molecular target: T2, PTPN2 (B16F10.4 cells) (Mus musculus, UniProt Q06180); test: HiBiT Degradation B16F10.4 PTPN2; assay type: cell-based; details: 24.0 hours
T2 construct: HiBiT; host or cells: B16F10.4
T2 sequence (Q06180 1-406): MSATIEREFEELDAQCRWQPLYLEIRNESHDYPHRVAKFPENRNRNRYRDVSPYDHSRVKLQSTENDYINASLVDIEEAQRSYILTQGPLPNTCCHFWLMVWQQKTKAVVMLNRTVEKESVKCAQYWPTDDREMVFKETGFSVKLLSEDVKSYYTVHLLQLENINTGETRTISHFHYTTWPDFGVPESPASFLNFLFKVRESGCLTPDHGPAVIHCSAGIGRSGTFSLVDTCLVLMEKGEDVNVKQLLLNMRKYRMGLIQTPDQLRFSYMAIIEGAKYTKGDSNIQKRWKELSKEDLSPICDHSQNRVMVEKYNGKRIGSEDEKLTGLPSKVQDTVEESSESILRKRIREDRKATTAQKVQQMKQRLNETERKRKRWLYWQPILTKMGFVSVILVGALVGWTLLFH

| DC50 [1] | DC50 (PTPN2 (B16F10.4 cells)) | SMILES |
| --- | --- | --- |
| 0.2 to 1 µM | ≥ 1 µM | O=C(O)COc1c(C(=O)O)sc(-c2cccc(NC3CCN(S(=O)(=O)Cc4cccc(NC(=O)CCCCCCNC(=O)CNc5cccc6c5C(=O)N(C5CCC(=O)NC5=O)C6)c4)CC3)c2)c1Cl (centres unmarked) [Example 30, 3-(carboxymethoxy)-4-chloro-5-[3-[[1-[[3-[7-[[2-[[2-(2,6-dioxo-3-piperidyl)-3-oxo-isoindolin-4-yl]amino]acetyl]amino]heptanoylamino]phenyl]methylsulfonyl]-4-piperidyl]amino]phenyl]thiophene-2-carboxylic acid] |
| 0.05 to 0.2 µM | 0.05 to 0.2 µM | Cn1c(=O)n(C2CCC(=O)NC2=O)c2ccc(N3CCC(N4CCN(c5cccc(CS(=O)(=O)N6CC[C@H](Nc7cccc(-c8sc(C(=O)O)c(OCC(=O)O)c8Cl)c7)CC6(C)C)c5)C4=O)CC3)cc21 (stereo partly drawn) [Example 198, 3-(carboxymethoxy)-4-chloro-5-[3-[[(4S)-1-[3-[3-[[1-[1-(2,6-dioxo-3-piperidyl)-3-methyl-2-oxo-benzimidazol-5-yl]-4-piperidyl]-2-oxo-imidazolidin-1-yl]phenyl]methylsulfonyl]-2,2-dimethyl-4-piperidyl]amino]phenyl]thiophene-2-carboxylic acid] |
| ≥ 1 µM | ≥ 1 µM | CC1(C)C[C@@H](Nc2cccc(-c3sc(C(=O)O)c(OCC(=O)O)c3Cl)c2)CCN1S(=O)(=O)Cc1cccc(NC(=O)CCN2CCC(Oc3cccc4c3CN(C3CCC(=O)NC3=O)C4=O)CC2)c1 (some centres unmarked) [Example 56] |
| 0.2 to 1 µM | ≥ 1 µM | CC1(C)C[C@H](Nc2cccc(-c3sc(C(=O)O)c(OCC(=O)O)c3Cl)c2)CCN1S(=O)(=O)Cc1cccc(NC(=O)CCn2cc(CNc3cccc4c3C(=O)N(C3CCC(=O)NC3=O)C4=O)nn2)c1 (stereo partly drawn) [Example 14, 3-(carboxymethoxy)-4-chloro-5-(3-(((4R)-1-((3-(3-(4-(((2-(2,6-dioxopiperidin-3-yl)-1,3-dioxoisoindolin-4-yl)amino)methyl)-1H-1,2,3-triazol-1-yl)propanamido)benzyl)sulfonyl)-2,2-dimethylpiperidin-4-yl)amino)phenyl)thiophene-2-carboxylic acid] |
| 0.2 to 1 µM | 0.05 to 0.2 µM | Cn1c(=O)n(C2CCC(=O)NC2=O)c2ccc(C3CCN(C(=O)Nc4cccc(CS(=O)(=O)N5CC[C@@H](Nc6cc(-c7sc(C(=O)O)c(OCC(=O)O)c7Cl)ccc6F)CC5(C)C)c4)CC3)cc21 (some centres unmarked) [Example 133] |
| < 0.05 µM | < 0.05 µM | Cn1c(=O)n(C2CCC(=O)NC2=O)c2ccc([C@@H]3CCN(C(=O)Nc4cccc(CS(=O)(=O)N5CC[C@H](Nc6cccc(-c7sc(C(=O)O)c(OCC(=O)O)c7Cl)c6)CC5(C)C)c4)C[C@@H]3F)cc21 (stereo in doubt) [Example 172] |
| < 0.05 µM | 0.2 to 1 µM | CC1(C)C[C@@H](Nc2cccc(-c3sc(C(=O)O)c(OCC(=O)O)c3Cl)c2)CCN1S(=O)(=O)Cc1cccc(NC(=O)C2CCN(C(=O)CNc3cccc4c3CN(C3CCC(=O)NC3=O)C4=O)CC2)c1 (stereo partly drawn) [Example 48, 3-(carboxymethoxy)-4-chloro-5-(3-(((4S)-1-((3-(1-((2-(2,6-dioxopiperidin-3-yl)-1-oxoisoindolin-4-yl)glycyl)piperidine-4-carboxamido)benzyl)sulfonyl)-2,2-dimethylpiperidin-4-yl)amino)phenyl)thiophene-2-carboxylic acid] |
| 0.2 to 1 µM | ≥ 1 µM | Cn1c(=O)n(C2CCC(=O)NC2=O)c2ccc(N3CC(OC(=O)Nc4cccc(CS(=O)(=O)N5CC[C@H](Nc6cccc(-c7sc(C(=O)O)c(OCC(=O)O)c7Cl)c6)CC5(C)C)c4)C3)cc21 (some centres unmarked) [Example 136] |
| 0.2 to 1 µM | ≥ 1 µM | CC1(C)C[C@@H](Nc2cccc(-c3sc(C(=O)O)c(OCC(=O)O)c3Cl)c2)CCN1S(=O)(=O)Cc1cccc(NC(=O)CCCNC(=O)CNc2cccc3c2CN(C2CCC(=O)NC2=O)C3=O)c1 (stereo partly drawn) [Example 28, 3-(carboxymethoxy)-4-chloro-5-(3-(((4S)-1-((3-(4-(2-((2-(2,6-dioxopiperidin-3-yl)-1-oxoisoindolin-4-yl)amino)acetamido)butanamido)benzyl)sulfonyl)-2,2-dimethylpiperidin-4-yl)amino)phenyl)thiophene-2-carboxylic acid] |
| < 0.05 µM | 0.05 to 0.2 µM | Cn1c(=O)n(C2CCC(=O)NC2=O)c2ccc(N3CCC(CCNCCNc4cccc(CS(=O)(=O)N5CC[C@H](Nc6cccc(-c7sc(C(=O)O)c(OCC(=O)O)c7Cl)c6)CC5(C)C)c4)CC3)cc21 (stereo partly drawn) [Example 237, 3-(carboxymethoxy)-4-chloro-5-[3-[[(4S)-1-[[3-[2-[2-[1-[1-(2,6-dioxo-3-piperidyl)-3-methyl-2-oxo-benzimidazol-5-yl]-4-piperidyl]ethylamino]ethylamino]phenyl]methylsulfonyl]-2,2-dimethyl-4-piperidyl]amino]phenyl]thiophene-2-carboxylic acid] |
| 0.2 to 1 µM | 0.05 to 0.2 µM | Cn1c(=O)n(C2CCC(=O)NC2=O)c2ccc(C3CN(C(=O)Nc4cccc(CS(=O)(=O)N5CC[C@H](Nc6cccc(-c7sc(C(=O)O)c(OCC(=O)O)c7Cl)c6)CC5(C)C)c4)CCC3F)cc21 (stereo partly drawn) [Example 212, 3-(carboxymethoxy)-4-chloro-5-[3-[[(4S)-1-[[3-[[3-[1-(2,6-dioxo-3-piperidyl)-3-methyl-2-oxo-benzimidazol-5-yl]-4-fluoro-piperidine-1-carbonyl]amino]phenyl]methylsulfonyl]-2,2-dimethyl-4-piperidyl]amino]phenyl]thiophene-2-carboxylic acid] |
| 0.05 to 0.2 µM | 0.05 to 0.2 µM | Cn1c(=O)n(C2CCC(=O)NC2=O)c2ccc(N3CCC(OC(=O)Nc4cccc(CS(=O)(=O)N5CC[C@H](Nc6cccc(-c7sc(C(=O)O)c(OCC(=O)O)c7Cl)c6)CC5(C)C)c4)CC3)cc21 (stereo partly drawn) [Example 117, 3-(carboxymethoxy)-4-chloro-5-[3-[[(4S)-1-[[3-[[1-[1-(2,6-dioxo-3-piperidyl)-3-methyl-2-oxo-benzimidazol-5-yl]-4-piperidyl]oxycarbonylamino]phenyl]methylsulfonyl]-2,2-dimethyl-4-piperidyl]amino]phenyl]thiophene-2-carboxylic acid] |
| 0.05 to 0.2 µM | 0.05 to 0.2 µM | CC(C)n1c(=O)n(C2CCC(=O)NC2=O)c2ccc(C3CCN(C(=O)Nc4cccc(CS(=O)(=O)N5CC[C@H](Nc6cccc(-c7sc(C(=O)O)c(OCC(=O)O)c7Cl)c6)CC5(C)C)c4)CC3)cc21 (some centres unmarked) [Example 137] |
| 0.05 to 0.2 µM | < 0.05 µM | O=C(O)COc1c(C(=O)O)sc(-c2cccc(NC3CCN(S(=O)(=O)Cc4cccc(NC(=O)N5CCC(c6ccc7c8c(cccc68)C(=O)N7C6CCC(=O)NC6=O)CC5)c4)CC3)c2)c1Cl (centres unmarked) [Example 173, 3-(carboxymethoxy)-4-chloro-5-[3-[[1-[[3-[[4-[1-(2,6-dioxo-3-piperidyl)-2-oxo-benzo[cd]indol-6-yl]piperidine-1-carbonyl]amino]phenyl]methylsulfonyl]-4-piperidyl]amino]phenyl]thiophene-2-carboxylic acid] |
| 0.05 to 0.2 µM | 0.05 to 0.2 µM | Cn1c(=O)n(C2CCC(=O)NC2=O)c2ccc(N3CCC(O)(CC(=O)Nc4cccc(CS(=O)(=O)N5CC[C@H](Nc6cccc(-c7sc(C(=O)O)c(OCC(=O)O)c7Cl)c6)CC5(C)C)c4)CC3)cc21 (stereo partly drawn) [Example 183, 3-(carboxymethoxy)-4-chloro-5-[3-[[(4S)-1-[[3-[[2-[1-[1-(2,6-dioxo-3-piperidyl)-3-methyl-2-oxo-benzimidazol-5-yl]-4-hydroxy-4-piperidyl]acetyl]amino]phenyl]methylsulfonyl]-2,2-dimethyl-4-piperidyl]amino]phenyl]thiophene-2-carboxylic acid] |
| 0.05 to 0.2 µM | 0.2 to 1 µM | CC1(C)C[C@@H](Nc2cccc(-c3sc(C(=O)O)c(OCC(=O)O)c3Cl)c2)CCN1S(=O)(=O)Cc1cccc(NC(=O)OC2CN(C(=O)CNc3cccc4c3CN(C3CCC(=O)NC3=O)C4=O)C2)c1 (stereo partly drawn) [Example 96, 3-(carboxymethoxy)-4-chloro-5-[3-[[(4S)-1-[[3-[[1-[2-[[2-(2,6-dioxo-3-piperidyl)-1-oxo-isoindolin-4-yl]amino]acetyl]azetidin-3-yl]oxycarbonylamino]phenyl]methylsulfonyl]-2,2-dimethyl-4-piperidyl]amino]phenyl]thiophene-2-carboxylic acid] |
